Measurements: US7314866B2, “Ku-70-derived Bax-suppressing peptides and use thereof for the protection of damaged cells” (Bloodcenter of Wisconsin, Inc., priority 2002, dated 2008)
Each block holds one molecule with its values, some of them ahead of it. Where a SMILES comes first, the peptide text is derived from it. Where no end group is shown, it is not given here.

Experiments:
[1] = Membrane permeability and cellular retention of peptides; format: in vitro ADME
[2] = test system: HEK293T cells; experiment: Bax-induced apoptosis in HEK293T cells (pcDNA3-Bax transfection, Hoechst staining); format: cell-based, human; settings: for Suppression of Bax-induced apoptosis: peptide delivered into the cells by liposome (BioPorter); for Suppression of Bax-induced apoptosis by co-transfected Ku70 mutant: 2.0 ug pCMV-2B construct co-transfected with pcDNA3-Bax
Description: FIG. 1 illustrates that new peptides designed from Ku70 show anti-Bax activity. FIG. 1A: scheme of Ku70 full-length (Ku70 wt), Ku701-577 (Ku70Δ578–609), or Ku70578-609 (Ku70Δ1–577). FIG. 1C: HEK293T cells were transfected with 1.0 ug of pCMV-2B-control vector (Control) or pcDNA3-Bax (Bax) together with 2.0 ug of pCMV-2B-Ku70 wt (Ku70 wt), pCMV-2B-Ku701-577 (Ku701-577), or pCMV-2B-Ku70578-609 (Ku70578-609). All the cells were also co-transfected with 0.5 ug pEGFP for the marking of transfected cells. Apoptosis in the transfected cells was analyzed 24 hours following transfection with Hoechst dye staining of the nucleus as described in Methods. FIG. 1D: HEK293T cells were incubated with 200 uM peptide composed of Ku70578-587 or Ku70596-600 for 4 hours using BioPorter reagent, and then transfected with 1.0 ug of pCDNA3-control vector (Control) or pcDNA3-Bax (Bax). The number of apoptotic cells was determined as described in FIG. 1C. FIG. 1E: HEK293T cells (10^6 cells) were incubated with 200 uM IPMIK (negative control peptide) or VPMLK (V5) and PMLKE (P5) peptides at the indicated concentrations for 1 hour and then incubated cells were transfected with 1.0 ug of pcDNA3-Bax. Also, unincubated cells were transfected with 1.0 ug of pcDNA3-Bax in the presence or absence of 200 uM z-VAD-fmk. The number of apoptotic cells was determined as described in FIG. 1C. FIG. 1F: Summary of the anti-Bax activity and sequence of all peptides used.
HEK293T and HeLa cells were cultured in MEM supplemented with 10% fetal bovine serum (FBS) and Du145 cells and mouse embryonic fibroblasts (MEFs) were in DMEM with 10% FBS. Transfection of the plasmids was performed by SuperFect (Qiagen) according to the manufacturer's manual. Apoptosis was induced by pcDNA3-human Bax (Bax-encoding plasmid)-transfection, Staurosporin (STS)-treatment and UVC-irradiation. The amount of the plasmids, the concentration of STS, and the energy of UVC-irradiation are described in the figure legends. Apoptosis in the transfected cells was analyzed as follows: A plasmid encoding enhanced green fluorescent protein (EGFP) (0.5 ug to 10^6 cells) was transfected to all the groups to mark the transfected cells. After the treatment, cells were stained with Hoechst dye and cells with apoptotic nuclei were counted in GFP-expressing cells under the fluorescent microscope as described by Matsuyama, et al., J. Biol. Chem. 273:30995–31001, 1998. Each point in the figures showing percentages of apoptosis represents the mean +/−SE of three experiments. Caspase activities of cells were measured by detecting the cleavage of fluorogenic substrate of Caspase (DEVD-afc) as previously described.
BioPorter-based peptide delivery was performed 4 hours before apoptosis induction.

[3] = target: T1, endogenous Bax (Homo sapiens, UniProt Q07812); experiment: Co-immunoprecipitation of Flag-tagged Ku70 mutants and endogenous Bax; format: binding; settings: HEK293T cells
T1 construct: endogenous in cells; host or cells: HEK293T
Description: Endogenous protein: HEK293T (10^7 cells) were lysed in 200 ul of “CHAPS-based buffer” (150 mM NaCl, 10 mM Hepes, pH 7.4, 1.0% CHAPS) containing protease inhibitors (100 times dilution of Protease Inhibitors Cocktail; Sigma) according to the previously reported method (Hsu and Youle, J. Biol. Chem. 273:10777–10783, 1998). After precleaning of 600 ul of the sample with 50 ul of Protein G-Sepharose at 4° C. for 1 hour, immunoprecipitations were performed by incubating 200 ul of lysates with 20 ul of Protein G-Sepharose preabsorbed with 2 ug of anti-Bax polyclonal (BD-Pharmingen) or anti-Ku70 monoclonal antibody (BD-Pharmingen) at 4° C. for 2 hours. In some cases, 2 ug of anti-Bax monoclonal antibody (clone 6A7, BD Pharmingen) was used to detect active form of Bax. After extensive washing in the buffer, beads were boiled in 40 ul of Laemmli buffer and 20 ul of the eluted proteins were subjected to SDS-PAGE. Co-precipitation of biotin-labeled peptides and endogenous Bax using streptavidin beads: HEK293T cells (10^7 cells) lysed in 200 ul CHAPS-based buffer were incubated with biotin-labeled negative control (NC) peptide or VPMLK (V5; SEQ ID NO: 1) peptide for 1 hour. The concentrations of NC and V5 peptide labeled with biotin are described in the figure legends. […]

[4] = target: T2, interaction of Ku70 and Bax (Homo sapiens, UniProt Q07812); experiment: Co-immunoprecipitation of endogenous Ku70 and Bax in cell lysates with added peptide; format: binding; settings: peptide added to cell lysates
T2 construct: endogenous in cells; HeLa and 293 cells for the V6 peptide
Description: FIGS. 6A–D: HEK293T cells (10^7 cells) lysed in CHAPS buffer were incubated with 200 uM negative control (NC) peptide or (A) VPMLK (V5, SEQ ID NO: 1), (B) PMLKE (P5, SEQ ID NO: 2), (C) PMLK (P4, SEQ ID NO: 3), and (D) MLKE (M4, SEQ ID NO: 6) at the indicated concentrations for 1 hour. Immunoprecipitation was performed with anti-Ku70 monoclonal antibody or anti-Bax polyclonal antibody using CHAPS buffer as described in Methods. Mouse IgG and pre-immune rabbit serum (NRS) were used as negative controls.
By testing several deletion mutants of the Ku70 protein, I have identified the Bax-binding domain in Ku70. The domain comprises 6 amino acids (VPMLKE, SEQ ID NO: 7). This peptide (Ku70 Peptide V6) inhibits the interaction of Ku70 and Bax at the concentration of 20–80 μM in lysates prepared from human cultured cells (HeLa cells and human kidney epithelial 293 cells).
Endogenous protein: HEK293T (10^7 cells) were lysed in 200 ul of “CHAPS-based buffer” (150 mM NaCl, 10 mM Hepes, pH 7.4, 1.0% CHAPS) containing protease inhibitors (100 times dilution of Protease Inhibitors Cocktail; Sigma) according to the previously reported method (Hsu and Youle, J. Biol. Chem. 273:10777–10783, 1998). […]

[5] = target: T3, endogenous Bax in Ku70-deficient mouse embryonic fibroblasts (mouse, UniProt Q07813 1-192); experiment: Scatchard analysis; FITC fluorescence before and after immunoprecipitation of Bax from Ku70-deficient MEF cytosol
T3 construct: also called endogenous Bax in Ku70-deficient MEFs
Description: The interaction of BIP and Bax was confirmed by experiments using the system of biotin-labeled BIP and streptavidin beads. Biotin-labeled BIP (biotin-VPMLK; SEQ ID NO: 1), but not negative control peptide (biotin-IPMIK; SEQ ID NO: 5) precipitated Bax from the cell lysates when the streptavidin beads were added to the samples.
Ku70-deficient MEFs (10^7 cells) were lysed in 200 ul of "detergent-free hypotonic buffer" (hypotonic (5 mM NaCl) phosphate buffered saline, pH 7.4) containing protease inhibitors (100 times dilution of Protease Inhibitors Cocktail; Sigma) according to the previously reported method (Hsu and Youle, supra, 1998). For Scatchard analysis, the cytosol fraction was used and NaCl was added to prepare the isotonic condition before immunoprecipitation as previously reported (Hsu and Youle, supra, 1998). […] FITC fluorescence of pre-immunoprecipitation ("B"+"F") and the supernatant following immunoprecipitation ("F") were measured by fluorescence microplate reader (Molecular Devices), and the values of "B+F" and "B" were calculated. Kd was calculated by Scatchard plot. […] No significant binding of FITC-V5 to the cellular components was detected in Bax-immunodepleted samples.

[6] = target: T4, human Bax (human, UniProt Q07812 1-192); experiment: fluorescence microscopy of HeLa cells and of Du145 cells with or without pcDNA3-Bax
T4 construct: Protein in cell lysates or cells, not purified; also called endogenous Bax; pcDNA3-Bax (human)
Description: HeLa cells and transfected or untransfected Du145 cells with pcDNA3-Bax were incubated with 200 uM FITC-labeled VPMLK (V5; SEQ ID NO: 1) peptide for 1 hour prior to microscopic analysis by fluorescent microscope. For immunostaining, cells incubated with FITC-V5 peptide for 1 hour were fixed with 4% paraformaldehyde in phosphate buffered saline (PBS). Cells were permeablized with 0.5% Triton X-100 and 0.05% Tween-20 in PBS. Fixed cells were incubated in PBS containing 5% BSA at 37 C, and stained with anti-Bax monoclonal antibody (BD-Pharmingen, dilution 1:50) followed by the detection of Texas-Red labeled anti-mouse IgG (Jackson ImmunoResearch, dilution 1:100).

T1 sequence (Q07812 whole entry): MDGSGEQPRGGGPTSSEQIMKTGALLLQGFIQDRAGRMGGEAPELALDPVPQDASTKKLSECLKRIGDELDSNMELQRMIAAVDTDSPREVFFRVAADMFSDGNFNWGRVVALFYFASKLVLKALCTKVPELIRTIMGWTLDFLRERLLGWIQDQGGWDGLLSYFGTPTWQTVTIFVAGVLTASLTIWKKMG
T2 sequence (Q07812 whole entry): as above
T4 sequence (Q07812 whole entry): as above
T3 sequence (Q07813 whole entry): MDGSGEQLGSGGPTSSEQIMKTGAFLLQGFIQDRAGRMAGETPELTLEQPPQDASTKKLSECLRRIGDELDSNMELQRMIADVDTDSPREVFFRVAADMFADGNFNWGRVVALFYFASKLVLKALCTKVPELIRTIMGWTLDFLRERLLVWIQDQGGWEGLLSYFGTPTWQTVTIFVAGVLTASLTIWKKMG

Membrane permeability [1]: membrane permeable
Retention of the peptide in the cell [1]: effectively retained inside the cells
Molecule: CSCC[C@H](NC(=O)[C@@H]1CCCN1)C(=O)N[C@@H](CC(C)C)C(=O)N[C@@H](CCCCN)C(=O)N[C@@H](CCC(=O)O)C(=O)O [PMLKE] (H-PMLKE-OH; N-terminus and C-terminus assumed)

Molecule: 578–587: synthetic peptide of Ku70 amino acids 578–587, 2nd α-helix from the C-terminus (VPMLKEACRA; UniProt P12956 578-587, looked up, fragment)
Suppression of Bax-induced apoptosis [2]: inhibited Bax-induced apoptosis

Binding of Flag-tagged Ku70 mutant to endogenous Bax [3]: did not
Molecule: Ku701-577: Ku70 mutant deleted of amino acids 578–609
Suppression of Bax-induced apoptosis by co-transfected Ku70 mutant [2]: not

Binding of Flag-tagged Ku70 mutant to endogenous Bax [3]: binds endogenous Bax
Molecule: Ku70578-609: Flag-tagged Ku70 mutant expressing the amino acids 578–609 of Ku70 (VPMLKEACRAYGLKSGLKKQELLEALTKHFQD; also: Flag-tagged)
Suppression of Bax-induced apoptosis by co-transfected Ku70 mutant [2]: suppressed Bax-induced apoptosis

Molecule: Ku70 Peptide NC: immediate next six amino acid sequence of Ku70, negative control (LGKFTV) [reference compound]
Effect on the interaction of Ku70 and Bax [4]: did not affect the interaction of Ku70 and Bax

Molecule: MLKE [four amino acid deletion peptide]
Effect on the interaction of Ku70 and Bax [4]: did not interfere with Bax-Ku70 interaction

Retention of the peptide in the cell [1]: not retained in the cell
Molecule: CSCC[C@H](NC(=O)[C@@H]1CCCN1)C(=O)N[C@@H](CC(C)C)C(=O)N[C@@H](CCCCN)C(=O)O [PMLK] (H-PMLK-OH; N-terminus and C-terminus assumed)

Molecule: 596–600: synthetic peptide of Ku70 amino acids 596–600 (KQELL; UniProt P12956 596-600, looked up, fragment)
Suppression of Bax-induced apoptosis [2]: not

Membrane permeability [1]: not membrane permeable
Molecule: CSCC[C@H](NC(=O)[C@@H]1CCCN1C(=O)[C@@H](N)C(C)C)C(=O)N[C@@H](CC(C)C)C(=O)N[C@@H](CCCCN)C(=O)N[C@@H](CCC(=O)O)C(=O)O [VPMLKE] (H-VPMLKE-OH; N-terminus and C-terminus assumed)

Membrane permeability [1]: membrane permeable
Retention of the peptide in the cell [1]: effectively retained inside the cells
Molecule: CSCC[C@H](NC(=O)[C@@H]1CCCN1C(=O)[C@@H](N)C(C)C)C(=O)N[C@@H](CC(C)C)C(=O)N[C@@H](CCCCN)C(=O)O [VPMLK] (H-VPMLK-OH; N-terminus and C-terminus assumed)

Kd [5]: 1300 nM
binding result [6]: binds
B1: FITC-labeled BIP (VPMLK; SEQ ID NO: 1) (peptide)
peptide: VPMLK
modifications: also: FITC-labeled, position of label not given here
notes: also called FITC-BIP; FITC-V5
